Laboratory results published in patent US8952024B2, “Herbicidal pyrimidone derivatives” (E I du Pont de Nemours and Company, priority 2009, dated 2015).

Assays:
Type in all cases: in vivo
[1] = system: ducksalad (Heteranthera limosa); experiment: Test B flooded paddy test; details: for Plant response rating, Flood, Ducksalad: 250 g ai/ha, flooded paddy test, visual rating on 0 to 100 scale (0 no effect, 100 complete control) after 13 to 15 days; for Plant response rating, Ducksalad: Flood (flooded paddy test), 13 to 15 days; for Ducksalad plant response rating: Flood, 31 g ai/ha, scale 0 to 100 (0 no effect, 100 complete control)
Outline: (§1)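 Seedlings reaching 2 leaves are flooded 3 cm deep; test material is delivered to that water, which stays at the same depth. Plants remain in a greenhouse 13–15 days and are then scored by eye versus controls from 0 to 100.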

[2] = system: barnyardgrass (Echinochloa crus-galli); experiment: Test B flooded paddy test; details: for Plant response rating, Flood, Barnyardgrass: 250 g ai/ha, flooded paddy test, visual rating on 0 to 100 scale (0 no effect, 100 complete control) after 13 to 15 days; for Plant response rating, Barnyardgrass: Flood (flooded paddy test), 13 to 15 days; for Barnyardgrass plant response rating: Flood, 31 g ai/ha, scale 0 to 100 (0 no effect, 100 complete control)
Outline: as §1

rice (Oryza sativa) = experiment: Test B flooded paddy test; details: for Plant response rating, Flood, Rice: 250 g ai/ha, flooded paddy test, visual rating on 0 to 100 scale (0 no effect, 100 complete control) after 13 to 15 days; for Plant response rating, Rice: Flood (flooded paddy test), 13 to 15 days; for Rice plant response rating: Flood, 31 g ai/ha, scale 0 to 100 (0 no effect, 100 complete control)
Outline: as §1

[3] = system: umbrella sedge (Cyperus difformis); experiment: Test B flooded paddy test; details: for Plant response rating, Flood, Sedge, Umbrella: 250 g ai/ha, flooded paddy test, visual rating on 0 to 100 scale (0 no effect, 100 complete control) after 13 to 15 days; for Plant response rating, Sedge, Umbrella: Flood (flooded paddy test), 13 to 15 days; for Sedge, Umbrella plant response rating: Flood, 31 g ai/ha, scale 0 to 100 (0 no effect, 100 complete control)
Outline: as §1

[4] = system: barnyardgrass (Echinochloa crus-galli); experiment: Test A pre-/postemergence plant response
Description: (§2) Seeds of barnyardgrass (Echinochloa crus-galli), large crabgrass (Digitaria sanguinalis), giant foxtail (Setaria faberii), morningglory (Ipomoea spp.), pigweed (Amaranthus retroflexus), velvetleaf (Abutilon theophrasti), wheat (Triticum aestivum) and corn (Zea mays) were planted into a blend of loam soil and sand and treated preemergence with a directed soil spray using test chemicals formulated in a non-phytotoxic solvent mixture which included a surfactant. At the same time these species were also treated with postemergence applications of test compounds formulated in the same manner.
(§3) Plants ranged in height from two to ten cm and were in the one- to two-leaf stage for the postemergence treatment. Treated plants and untreated controls were maintained in a greenhouse for approximately ten days, after which time all treated plants were compared to untreated controls and visually evaluated for injury. Plant response ratings, summarized in Table A, are based on a 0 to 100 scale where 0 is no effect and 100 is complete control. A dash (-) response means no test result.

[5] = system: morningglory (Ipomoea spp.); experiment: Test A pre-/postemergence plant response
Description: as §2, §3

[6] = system: velvetleaf (Abutilon theophrasti); experiment: Test A pre-/postemergence plant response
Description: as §2, §3

corn (Zea mays) = experiment: Test A pre-/postemergence plant response
Description: as §2, §3

[7] = system: giant foxtail (Setaria faberii); experiment: Test A pre-/postemergence plant response
Description: as §2, §3

[8] = system: pigweed (Amaranthus retroflexus); experiment: Test A pre-/postemergence plant response
Description: as §2, §3

[9] = system: wheat (Triticum aestivum); experiment: Test A pre-/postemergence plant response
Description: as §2, §3

[10] = system: large crabgrass (Digitaria sanguinalis); experiment: Test A pre-/postemergence plant response
Description: as §2, §3

[11] = 62 g ai/ha, scale of 0 to 100 where 0 is no effect and 100 is complete control
[12] = 125 g ai/ha, scale 0 to 100, 0 is no effect, 100 is complete control
[13] = Postemergence, 125 g ai/ha, 0 to 100 scale where 0 is no effect and 100 is complete control
[14] = Postemergence, 500 g ai/ha, 0 to 100 scale, 0 = no effect, 100 = complete control, approx. ten days
[15] = Preemergence, 125 g ai/ha, 0 to 100 scale, 0 = no effect, 100 = complete control
[16] = Preemergence, 500 g ai/ha, visual injury, 0 to 100 scale (0 no effect, 100 complete control), approx. ten days
[17] = Preemergence, 500 g ai/ha, 0 to 100 scale, 0 = no effect, 100 = complete control

COCCCn1c(-c2cccc(Cl)c2)ncc(C(=O)C2=C(O)CCCC2=O)c1=O [Compound 143]
20: Plant response rating, Flood, Barnyardgrass [2] | Plant response rating, Corn (corn (Zea mays); [14])
10: Plant response rating, Morningglory [5, 15] | Plant response rating, Corn (corn (Zea mays); [13]) | Plant response rating, Foxtail, Giant [7, 15] | Plant response rating, Wheat [9, 14]
100: Plant response rating, Morningglory [5, 14] | Plant response rating, Velvetleaf [6, 13] | Plant response rating, Velvetleaf [6, 14] | Plant response rating, Velvetleaf [6, 16]
0: Plant response rating, Barnyardgrass [2, 11] | Plant response rating, Barnyardgrass [2, 12] | Barnyardgrass plant response rating [2] | Plant response rating, Flood, Rice (rice (Oryza sativa)) | Plant response rating, Rice (rice (Oryza sativa); [11]) | Plant response rating, Rice (rice (Oryza sativa); [12]) | Rice plant response rating (rice (Oryza sativa)) | Plant response rating, Sedge, Umbrella [3, 11] | Plant response rating, Sedge, Umbrella [3, 12] | Sedge, Umbrella plant response rating [3] | Plant response rating, Corn (corn (Zea mays); [15]) | Plant response rating, Corn (corn (Zea mays); [16]) | Plant response rating, Wheat [9, 13] | Plant response rating, Wheat [9, 15] | Plant response rating, Wheat [9, 16]
40: Plant response rating, Barnyardgrass [4, 15]
90: Plant response rating, Flood, Ducksalad [1] | Plant response rating, Barnyardgrass [4, 14] | Plant response rating, Barnyardgrass [4, 16] | Plant response rating, Morningglory [5, 13] | Plant response rating, Pigweed [8, 14] | Plant response rating, Pigweed [8, 16] | Plant response rating, Crabgrass, Large [10, 14] | Plant response rating, Crabgrass, Large [10, 16]
80: Plant response rating, Ducksalad [1, 11] | Plant response rating, Ducksalad [1, 12] | Ducksalad plant response rating [1] | Plant response rating, Foxtail, Giant [7, 14]
50: Plant response rating, Crabgrass, Large [10, 15]
60: Plant response rating, Foxtail, Giant [7, 13]
65: Plant response rating, Flood, Sedge, Umbrella [3]
70: Plant response rating, Barnyardgrass [4, 13] | Plant response rating, Morningglory [5, 16] | Plant response rating, Velvetleaf [6, 15] | Plant response rating, Foxtail, Giant [7, 16] | Plant response rating, Pigweed [8, 13] | Plant response rating, Pigweed [8, 15] | Plant response rating, Crabgrass, Large [10, 13]

Cc1ccc(Cl)cc1-n1c(-c2cccc(Cl)c2)ncc(C(=O)C2=C(O)CCCC2=O)c1=O [Compound 148]
60: Plant response rating, Corn (corn (Zea mays); [14]) | Plant response rating, Foxtail, Giant [7, 13] | Plant response rating, Pigweed [8, 16]
50: Plant response rating, Flood, Barnyardgrass [2] | Plant response rating, Flood, Rice (rice (Oryza sativa)) | Plant response rating, Crabgrass, Large [10, 16]
10: Plant response rating, Rice (rice (Oryza sativa); [11]) | Plant response rating, Barnyardgrass [4, 15] | Plant response rating, Foxtail, Giant [7, 16]
100: Plant response rating, Flood, Ducksalad [1] | Plant response rating, Barnyardgrass [4, 14] | Plant response rating, Morningglory [5, 13] | Plant response rating, Morningglory [5, 14] | Plant response rating, Velvetleaf [6, 13] | Plant response rating, Velvetleaf [6, 14] | Plant response rating, Pigweed [8, 14]
85: Plant response rating, Sedge, Umbrella [3, 12]
95: Plant response rating, Flood, Sedge, Umbrella [3]
80: Plant response rating, Sedge, Umbrella [3, 11] | Sedge, Umbrella plant response rating [3] | Plant response rating, Velvetleaf [6, 17]
30: Plant response rating, Barnyardgrass [4, 16] | Plant response rating, Velvetleaf [6, 15]
90: Plant response rating, Ducksalad [1, 11] | Plant response rating, Ducksalad [1, 12] | Ducksalad plant response rating [1] | Plant response rating, Barnyardgrass [4, 13] | Plant response rating, Foxtail, Giant [7, 14] | Plant response rating, Pigweed [8, 13] | Plant response rating, Crabgrass, Large [10, 14]
15: Plant response rating, Barnyardgrass [2, 12]
20: Plant response rating, Rice (rice (Oryza sativa); [12]) | Rice plant response rating (rice (Oryza sativa))
70: Plant response rating, Crabgrass, Large [10, 13]
0: Plant response rating, Barnyardgrass [2, 11] | Barnyardgrass plant response rating [2] | Plant response rating, Morningglory [5, 15] | Plant response rating, Morningglory [5, 16] | Plant response rating, Corn (corn (Zea mays); [13]) | Plant response rating, Corn (corn (Zea mays); [15]) | Plant response rating, Corn (corn (Zea mays); [16]) | Plant response rating, Foxtail, Giant [7, 15] | Plant response rating, Pigweed [8, 15] | Plant response rating, Wheat [9, 13] | Plant response rating, Wheat [9, 14] | Plant response rating, Wheat [9, 15] | Plant response rating, Wheat [9, 17] | Plant response rating, Crabgrass, Large [10, 15]
